The values that follow come from patent US6656957B1, “Pyridine derivatives” (Novartis AG, priority 1998, dated 2003).

As usually defined, the ED50 is the midpoint of the dose-response relation. One may read the melting point as the temperature, or range, at which the solid turns liquid.

The subject of data set [1] is electroshock induced convulsion. Nature of the data set: electroshock induced convulsion model. Type of data set: in vivo. The settings on record: ip, read-out: anticonvulsive activity ED50. On the procedure: At doses of about 10 to 100 mg/kg i.p. or p.o. with pretreatment times of 15 min. to 8 hours, the agents of the invention show anticonvulsive activity in the electroshock induced convulsion model [cf. E. A. Swinyard, J. Pharm. Assoc. Scient. Ed. 38, 201 (1949) and J. Pharmacol. Exptl. Therap. 106, 319 (1952)].
(§1) Preferred compounds for the above mentioned indications include (3-{2-[2-trans-(3,5-dichlorophenyl)-vinyl]-6-methyl-pyridin-3-yloxy}-propyl)-dimethylamine (A), 2-methyl-6-styryl-pyridine (B), 2-(3-fluoro-phenylethynyl)-6-methyl-pyridine (C) and 2-(4-ethoxy-3-trifluoromethyl-phenylethynyl)-6-methyl-pyridine (D).

A further data set concerns FCA induced hyperalgesia. Nature of the data set: Freund complete adjuvant (FCA) induced hyperalgesia model. The settings on record: po; post-treatment time 3 hours; read-out: reversal of the hyperalgesia ED50. Type of data set: in vivo. The protocol:
At doses of about 4 to about 40 mg/kg p.o., the agents of the invention show reversal of Freund complete adjuvant (FCA) induced hyperalgesia [cf. J. Donnerer et al., Neuroscience 49, 693-698 (1992) and C. J. Woolf, Neuroscience 62, 327-331 (1994)].
as §1

Molecules are shown by their SMILES. Read-outs that look alike come from different tables or passages of the source.

Take `Cc1ccc(OCCCN(C)C)c(/C=C/c2cc(Cl)cc(Cl)c2)n1` [A, (3-{2-[2-trans-(3,5-dichlorophenyl)-vinyl]-6-methyl-pyridin-3-yloxy}-propyl)-dimethylamine]: the ED50 in data set [1] (pretreatment time 4 hours) is 30 mg/kg.

`Cc1cccc(C=Cc2ccccc2)n1` [B, 2-methyl-6-styryl-pyridine]: the ED50 in data set [1] (pretreatment time 15 min.) stood at 35 mg/kg.

The molecule `Cc1cccc(C#Cc2cccc(F)c2)n1` [C, 2-(3-fluoro-phenylethynyl)-6-methyl-pyridine] returned a melting point of 26 to 28 °C. Moreover, the ED50 in the data set on FCA induced hyperalgesia was 4.2 mg/kg.

For `CCOc1ccc(C#Cc2cccc(C)n2)cc1C(F)(F)F` [D, 2-(4-ethoxy-3-trifluoromethyl-phenylethynyl)-6-methyl-pyridine], the ED50 in the data set on FCA induced hyperalgesia stood at 19 mg/kg.
